Settings: Liquid, Vibrating tube method

CCCCCCCCCCCC(=O)OCC [ethyl dodecanoate]
mass density [kg/m3]
Settings | 283.15 K | 293.15 K | 303.15 K | 313.15 K | 323.15 K | 333.15 K | 343.15 K | 353.15 K | 363.15 K
100 kPa | 869.69 | 862.5 | 854.28 | 846.91 | 838.9 | 831.05 | 823.11 | 815.47 | 807.52
1000 kPa | 870.36 | 863 | 855.02 | 847.32 | 839.64 | 831.72 | 824.13 | 816.33 | 808.53
3000 kPa | 871.92 | 864.24 | 856.39 | 848.68 | 841.1 | 833.53 | 825.84 | 818.26 | 810.45
5000 kPa | 872.91 | 865.2 | 857.69 | 850.07 | 842.59 | 835.15 | 827.55 | 819.99 | 812.32
10000 kPa | 876.08 | 868.58 | 860.98 | 853.51 | 846.29 | 838.84 | 831.53 | 824.24 | 816.46
15000 kPa | 878.96 | 871.64 | 864.33 | 856.86 | 849.77 | 842.47 | 835.33 | 828.35 | 821.01
20000 kPa | 881.89 | 874.58 | 867.23 | 860.1 | 853.3 | 846.07 | 839.18 | 832.01 | 824.82
25000 kPa | 884.58 | 877.55 | 870.25 | 863.29 | 856.35 | 849.47 | 842.57 | 835.81 | 828.56
30000 kPa | 887.29 | 880.26 | 873.21 | 866.24 | 859.5 | 852.73 | 846.08 | 839.36 | 832.36
35000 kPa | 890.05 | 882.89 | 876.08 | 869.1 | 862.45 | 855.75 | 849.44 | 842.72 | 835.98
40000 kPa | 892.47 | 885.52 | 878.71 | 871.83 | 865.48 | 859.06 | 852.46 | 846.01 | 839.55
50000 kPa | 897.22 | 890.85 | 883.88 | 877.43 | 871.16 | 864.9 | 858.61 | 852.29 | 845.99
60000 kPa | 901.93 | 895.29 | 888.85 | 882.35 | 876.11 | 870.44 | 864.08 | 858.27 | 852.14

CCCCCCCCCCCC(=O)OC [methyl dodecanoate]
mass density [kg/m3]
Settings | 283.15 K | 293.15 K | 303.15 K | 313.15 K | 323.15 K | 333.15 K | 343.15 K | 353.15 K | 363.15 K
100 kPa | 876.58 | 869.3 | 860.98 | 853.31 | 845.42 | 837.89 | 829.64 | 821.96 | 813.95
1000 kPa | 877.29 | 869.79 | 861.67 | 853.78 | 846.17 | 838.44 | 830.6 | 822.7 | 814.97
3000 kPa | 879.12 | 871.19 | 863.19 | 855.32 | 847.65 | 840.13 | 832.28 | 824.65 | 816.88
5000 kPa | 880.29 | 872.09 | 864.57 | 856.78 | 849.19 | 841.69 | 834.04 | 826.36 | 818.64
10000 kPa | 883.41 | 875.46 | 867.78 | 860.3 | 852.91 | 845.49 | 837.93 | 830.59 | 822.93
15000 kPa | 886.29 | 878.42 | 871.1 | 863.63 | 856.38 | 849.14 | 841.71 | 834.55 | 827.44
20000 kPa | 889.1 | 881.47 | 874.06 | 866.74 | 859.88 | 852.7 | 845.7 | 838.32 | 831.22
25000 kPa | 891.75 | 884.32 | 876.92 | 870.04 | 863.01 | 856.12 | 848.98 | 842.04 | 834.95
30000 kPa | 894.31 | 887.1 | 879.85 | 872.94 | 866.2 | 859.27 | 852.48 | 845.62 | 838.64
35000 kPa | 896.95 | 889.69 | 882.66 | 875.68 | 869.19 | 862.4 | 855.72 | 849.06 | 842.26
40000 kPa | 899.33 | 892.27 | 885.34 | 878.33 | 872.15 | 865.66 | 858.94 | 853.14 | 845.87
50000 kPa | 904.05 | 897.52 | 890.6 | 883.95 | 877.67 | 871.36 | 864.79 | 858.49 | 852.24
60000 kPa | 909.85 | 901.95 | 895.49 | 888.91 | 883.06 | 876.77 | 870.31 | 864.35 | 858.43
